Measured values from ChEMBL document CHEMBL2150900, “β-Lactam synthon-interceded diastereoselective synthesis of functionalized octahydroindole-based molecular scaffolds and their in vitro cytotoxic evaluation” (Eur J Med Chem, 2012).

Assay: Cytotoxicity against human WHCO1 cells after 48 hrs by MTT assay
Assay type: functional, cell-based
Details: WHCO1, 48 h

In the case of `COC(=O)[C@H]1[C@H]2[C@H]([C@H](I)CC[C@@H]2C(=O)OC)N(c2ccccc2)[C@H]1c1ccccc1` (racemic), the IC50 is reported as 88.1 µM.
Work on `COC(=O)[C@H]1[C@H]2[C@H]([C@H](I)CC[C@@H]2C(=O)OC)N(c2ccccc2)[C@H]1c1ccc(Cl)cc1` (racemic) yielded an IC50 of 36.8 µM.
`COC(=O)[C@H]1[C@H]2[C@H]([C@H](I)CC[C@@H]2C(=O)OC)N(c2ccc(C)cc2)[C@H]1c1ccccc1` (racemic) gave an IC50 of 40.3 µM.
`O=C1NC(=O)[C@@H]2CC[C@@H](I)[C@H]3[C@@H]2[C@@H]1[C@@H](c1ccc(Cl)cc1)N3c1ccccc1` (racemic) showed an IC50 of 17.6 µM.
For `Cc1ccc([C@@H]2[C@@H]3C(=O)NC(=O)[C@@H]4CC[C@@H](I)[C@@H]([C@H]34)N2c2ccc(C)cc2)cc1` (racemic), the IC50 was 14.1 µM.
For `COC(=O)[C@H]1[C@H]2[C@H]([C@H](I)CC[C@@H]2C(=O)OC)N(c2ccccc2)[C@H]1c1ccc(OC)cc1` (racemic), the IC50 was 37.1 µM.
`Cc1ccc(N2[C@@H]3[C@@H]4[C@@H](C(=O)NC(=O)[C@@H]4CC[C@H]3I)[C@H]2c2ccc(Cl)cc2)cc1` (racemic) showed an IC50 of 13 µM.
Work on `COC(=O)[C@H]1[C@H]2[C@H]([C@H](I)CC[C@@H]2C(=O)OC)N(c2ccc(C)cc2)[C@H]1c1ccc(OC)cc1` (racemic) yielded an IC50 of 37.8 µM.
